# Laboratory results: US20190375837A1, “IMMUNOCYTOKINE COMBINATION THERAPY” (priority 2017, published 2019)
# Where two headings read alike, the source gives them in different places.
# Legend:
# [1] = system: SKRC-52 xenografts; assay: in vivo; design: species or system BALB/c nu/nu mice; settings: mouse, iv
# Experimental: (§1) Radiolabeling procedures with technetium-99m were performed following described procedures (Krall N, Pretto F, Mattarella M, Muller C, Neri D. A technetium 99m-labeled ligand of carbonic anhydrase IX selectively targets renal cell carcinoma in vivo. J Nucl Med 2016; and Cazzamalli S, Dal Corso A, Neri D. Acetazolamide serves as selective delivery vehicle for dipeptide-linked drugs to renal cell carcinoma. Mol Cancer Ther 2016). Briefly, compounds 8, 9 and 10 (60 nmol) in TBS pH 7.4 (50 μl) were separately mixed with SnCl2 (Sigma Aldrich, 200 μg) and sodium glucoheptonate (TCI, 20 mg) in H2O (150 μl). Tris-buffered saline at pH 7.4 (600 μl) was added and the resulting solution degassed for 5 min by bubbling with nitrogen gas. The eluate from a ^99mTc-generator (200 μl, ca. 200 MBq, Mallinckrodt) was added and the reaction mixture heated to 90° C. for 20 min After cooling to room temperature, analytic aliquots were analyzed by RP-HPLC (XTerra C18, 5% MeCN in 0.1% aq. TFA to 80% over 20 min on a Merck-Hitachi D-7000 HPLC system equipped with a Raytest Gabi Star radiodetector) to determine radiolabelling yields. ^99mTc incorporations >95% were routinely achieved.
# (§2) Mice were randomized (n=3 per group) and injected intravenously with radiolabelled preparations of compounds 8, 9 or 10 (1-3 MBq, 30 nmol/Kg). Mice were sacrificed 6 hours after the injection by CO2 asphyxiation and organs extracted, weighted and radioactivity measured with a Packard Cobra γ-counter. Values are expressed as % ID/g ±SD (FIG. 10B).
# [2] = in vivo; design: species or system BALB/c nu/nu mice; settings: female, BALB/c nu/nu, mouse, iv, 30 nmol/kg, total radioactivity
# Experimental: as §1, §2
# [3] = system: SKRC-52 renal cell carcinoma; settings: for anti-cancer activity compared to vehicle: 250 nmol/Kg IV per administration, n=4 per group, p<0.0001 for compounds 2 and 4; for tumor growth retardation compared with the other SMDCs: compound 2 vs compound 4
# Experimental: SKRC-52 cells were grown to 80% confluence and detached with Trypsin-EDTA 0.05% (Life Technologies). Cells were washed with Hank's Balanced Salt Solution (HBSS, pH 7.4) once, counted and re-suspended in HBSS to a final concentration of 5×10^7 cells/ml. Aliquots of 5×10^6 cells (100 μl of a suspension) were injected subcutaneously in the right flank of female athymic BALB/c nu/nu mice (6-8 weeks of age, Janvier).
# [4] = system: SKRC-52 renal cell carcinoma; assay: Tumor therapy in SKRC-52 xenografts: compound 2 with L19-IL2; assay type: in vivo, BALB/c nu/nu mice; settings: day 17 after tumor implantation; compound 2 250 nmol/kg IV, L19-IL2 2.5 mg/Kg IV, single or combined
# Source text: Animals were sacrificed when the termination criteria were reached.
# [5] = in vivo; settings: nude, mouse
# [6] = system: SKRC-52 renal cell carcinoma; assay: Tumor rechallenge of cured mice with SKRC-52, then treatment of regrowing tumors; assay type: in vivo, BALB/c nu/nu mice; settings: L19-IL2 2.5 mg/Kg alone; 3 mice
# Experimental: To determine whether the CAIX ligand armed with MMAE (compound 2, see example 1) in combination with L19-IL2 caused acquired protective immunity against the tumor, mice that were cured in the therapy experiment of Example 2 were injected with 5×10^6 cells (100 μl of a suspension) SKRC-52 cells/mouse 20 days after the treatment ended. […] Mice were rearranged in two groups and treated with either the compound 2 alone (250 nmol/Kg; 2 mice), or L19-IL2 (2.5 mg/Kg; 3 mice) alone (see the schedule in FIGS. 4A and 4B).
# [7] = system: renal cell carcinoma; settings: 18 patients with renal cell carcinoma; cited from earlier work
compound,measurement,setting,value
"CC(CCC(=O)N[C@@H](CC(=O)N[C@@H](CC(=O)N[C@@H](CCCCn1cc(CCCC(=O)Nc2nnc(S(N)(=O)=O)s2)nn1)C(=O)NCCCC[C@H](N)C(=O)N[C@@H](CC(=O)O)C(=O)N[C@@H](CS)C(=O)O)C(=O)O)C(=O)O)(c1ccc(O)cc1)c1ccc(O)cc1 [compound 8, AAZ*-^99mTc Chelator, metal not drawn]",tumor to blood ratio,[1],80:1
same,tissue uptake at 6 h,[2],40 %ID/g
"CC[C@H](C)[C@@H]([C@@H](CC(=O)N1CCC[C@H]1[C@H](OC)[C@@H](C)C(=O)N[C@H](C)[C@@H](O)c1ccccc1)OC)N(C)C(=O)[C@@H](NC(=O)[C@H](C(C)C)N(C)C(=O)OCc1ccc(NC(=O)[C@H](CCCNC(N)=O)NC(=O)[C@@H](NC(=O)CCCCCN2C(=O)CC(SC[C@H](NC(=O)[C@H](CC(=O)O)NC(=O)[C@H](CCCNC(=N)N)NC(=O)[C@H](CC(=O)O)NC(=O)[C@H](CCCCn3cc(CCCC(N)=O)nn3)NC(=O)C[C@H](NC(=O)C[C@H](NC(=O)CCC(C)(c3ccc(O)cc3)c3ccc(O)cc3)C(=O)O)C(=O)O)C(=O)O)C2=O)C(C)C)cc1)C(C)C (stereo partly shown) [compound 6, NH2^+-ValCit-MMAE]",anti-cancer activity compared to vehicle,[3],did not display a difference from the vehicle-treated group
"CC[C@H](C)[C@@H]([C@@H](CC(=O)N1CCC[C@H]1[C@H](OC)[C@@H](C)C(=O)N[C@H](C)[C@@H](O)c1ccccc1)OC)N(C)C(=O)[C@@H](NC(=O)[C@H](C(C)C)N(C)C(=O)OCc1ccc(NC(=O)[C@H](CCCNC(N)=O)NC(=O)[C@@H](NC(=O)CCCCCN2C(=O)CC(SC[C@H](NC(=O)[C@H](CC(=O)O)NC(=O)[C@H](CCCNC(=N)N)NC(=O)[C@H](CC(=O)O)NC(=O)CCCCn3cc(CCCC(=O)Nc4nnc(S(N)(=O)=O)s4)nn3)C(=O)O)C2=O)C(C)C)cc1)C(C)C (stereo partly shown) [compound 4, AAZ-ValCit-MMAE, reference compound]",anti-cancer activity compared to vehicle,[3],potent anti-cancer activity
"CC[C@H](C)[C@@H]([C@@H](CC(=O)N1CCC[C@H]1[C@H](OC)[C@@H](C)C(=O)N[C@H](C)[C@@H](O)c1ccccc1)OC)N(C)C(=O)[C@@H](NC(=O)[C@H](C(C)C)N(C)C(=O)OCc1ccc(NC(=O)[C@H](CCCNC(N)=O)NC(=O)[C@@H](NC(=O)CCCCCN2C(=O)CC(SC[C@H](NC(=O)[C@H](CC(=O)O)NC(=O)[C@H](CCCNC(=N)N)NC(=O)[C@H](CC(=O)O)NC(=O)[C@H](CCCCn3cc(CCCC(=O)Nc4nnc(S(N)(=O)=O)s4)nn3)NC(=O)C[C@H](NC(=O)C[C@H](NC(=O)CCC(C)(c3ccc(O)cc3)c3ccc(O)cc3)C(=O)O)C(=O)O)C(=O)O)C2=O)C(C)C)cc1)C(C)C (stereo partly shown) [compound 2, AAZ*-ValCit-MMAE]",antitumor activity (FIG. 3),[4],Potent antitumor activity
same,MTD,[5],0.25 µmol/kg
same,durable complete response,[3]; 250 nmol/Kg IV,no mice had a durable complete response
same,"tolerability (body weight changes, FIG. 9B)",[3]; 250 nmol/Kg IV,very well tolerated
same,anti-cancer activity compared to vehicle,[3],potent anti-cancer activity
same,tumor growth retardation compared with the other SMDCs,[3]; 250 nmol/Kg IV,most potent tumor growth retardation effect
same,tumor growth retardation compared with the other SMDCs,"[3]; 250 nmol/Kg IV, listed as SMDC 2",superior antitumor activity
same,therapeutic efficacy after presaturation with excess of free AAZ* (compound 7),[3]; 50-fold dose of AAZ* ligand (1.25 μmol/Kg) directly followed by compound 2 250 nmol/Kg,reduced significantly
"L19-IL2: immunocytokine in which the anti-EDB antibody L19 (scFv) is conjugated to IL-2, SEQ ID NO: 22",second complete tumor regression of regrowing tumors,[6],second complete tumor regression for all 3 animals
same,antitumor activity (FIG. 3),[4],Potent antitumor activity
same,objective responses,[7],no objective responses
"N[C@@H](CCCCNC(=O)[C@H](CC(=O)O)NC(=O)CCCCn1cc(CCCC(=O)Nc2nnc(S(N)(=O)=O)s2)nn1)C(=O)N[C@@H](CC(=O)O)C(=O)N[C@@H](CS)C(=O)O [compound 9, AAZ-^99mTc Chelator, metal not drawn, reference compound]",tissue uptake at 6 h,[2],18 %ID/g
